The compounds below were run against human APJ receptor (Homo sapiens (Human), UniProt P35414) (assay: Intracellular cAMP accumulation assay (APJ hcAMP, HTRF)). Settings: HEK293 cells stably expressing human APJ receptor; inhibition of forskolin-mediated cAMP production; read-out: Human APJ cAMP EC50 Potency range.
Type: cell-based
Summary of the method: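 HEK293 cells stably expressing human APJ, 5,000 per well, incubated 30 min at rt with compound, […] and 2 μM forskolin. cAMP measured by HTRF against a cAMP standard curve as inhibition of forskolin-driven production. EC50 from variable-slope sigmoidal fit.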

Chain of human APJ receptor (P35414 whole entry): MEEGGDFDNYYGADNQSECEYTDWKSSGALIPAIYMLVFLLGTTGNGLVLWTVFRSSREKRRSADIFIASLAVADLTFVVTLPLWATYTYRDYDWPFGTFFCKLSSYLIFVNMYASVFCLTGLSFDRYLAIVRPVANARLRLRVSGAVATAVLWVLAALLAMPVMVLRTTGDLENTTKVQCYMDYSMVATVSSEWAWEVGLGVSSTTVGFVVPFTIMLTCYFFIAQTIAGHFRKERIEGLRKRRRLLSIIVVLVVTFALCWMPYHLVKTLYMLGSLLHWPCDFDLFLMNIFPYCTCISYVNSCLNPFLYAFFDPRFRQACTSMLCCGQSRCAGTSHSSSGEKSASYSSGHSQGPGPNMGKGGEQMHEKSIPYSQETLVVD

EC50	SMILES
0.01 to 10 nM	CCCCc1nc(=O)c(S(=O)(=O)c2ccc(-c3ccnc(F)c3C)cc2)c(O)n1[C@H]1CCc2c(C#N)cccc21 [Example 537, (1S)-1-{2-butyl-5-[4-(2-fluoro-3-methylpyridin-4-yl)benzenesulfonyl]-6-hydroxy-4-oxo-1,4-dihydropyrimidin-1-yl}-2,3-dihydro-1H-indene-4-carbonitrile]
0.01 to 10 nM	CCCCc1nc(=O)c(S(=O)(=O)c2ccc(-c3cccc(F)c3C(N)=O)cc2)c(O)n1[C@@H](CC)c1cccc(C#N)c1 [Example 538, 4′-({2-butyl-1-[(1S)-1-(3-cyanophenyl)propyl]-6-hydroxy-4-oxo-1,4-dihydropyrimidin-5-yl}sulfonyl)-3-fluoro-[1,1′-biphenyl]-2-carboxamide]
0.01 to 10 nM	CCCCc1nc(=O)c(S(=O)(=O)c2ccc(-c3cccnc3C)cc2)c(O)n1[C@H]1CCc2c(C#N)cccc21 [Example 539, (1S)-1-{2-butyl-6-hydroxy-5-[4-(2-methylpyridin-3-yl)benzenesulfonyl]-4-oxo-1,4-dihydropyrimidin-1-yl}-2,3-dihydro-1H-indene-4-carbonitrile]
0.01 to 10 nM	CCCCc1nc(=O)c(S(=O)(=O)c2ccc(-c3ccc(F)nc3C)cc2)c(O)n1[C@H]1CCc2c(C#N)cccc21 [Example 540, (1S)-1-{2-butyl-5-[4-(6-fluoro-2-methylpyridin-3-yl)benzenesulfonyl]-6-hydroxy-4-oxo-1,4-dihydropyrimidin-1-yl}-2,3-dihydro-1H-indene-4-carbonitrile]
0.01 to 10 nM	CCCCc1nc(=O)c(S(=O)(=O)c2ccc(-c3ccncc3C)cc2)c(O)n1[C@H]1CCc2c(C#N)cccc21 [Example 541, (1S)-1-{2-butyl-6-hydroxy-5-[4-(3-methylpyridin-4-yl)benzenesulfonyl]-4-oxo-1,4-dihydropyrimidin-1-yl}-2,3-dihydro-1H-indene-4-carbonitrile]
10 to 100 nM	CCCCc1nc(=O)c(S(=O)(=O)c2ccc(-c3ccnc(F)c3C)cc2)c(O)n1[C@@H]1CCc2ccc(C#N)cc21 [Example 542, (3R)-3-{2-butyl-5-[4-(2-fluoro-3-methylpyridin-4-yl)benzenesulfonyl]-6-hydroxy-4-oxo-1,4-dihydropyrimidin-1-yl}-2,3-dihydro-1H-indene-5-carbonitrile]
10 to 100 nM	CCCCc1nc(=O)c(S(=O)(=O)c2ccc(-c3cccc(C(=O)NC)c3)cc2)c(O)n1[C@@H]1CCc2ccc(C#N)cc21 [Example 543, 4′-({2-butyl-1-[(1R)-6-cyano-2,3-dihydro-1H-inden-1-yl]-6-hydroxy-4-oxo-1,4-dihydropyrimidin-5-yl}sulfonyl)-N-methyl-[1,1′-biphenyl]-3-carboxamide]
10 to 100 nM	CCCCc1nc(=O)c(S(=O)(=O)c2ccc(-c3ccncc3C)cc2)c(O)n1[C@@H]1CCc2ccc(C#N)cc21 [Example 544, (3R)-3-{2-butyl-6-hydroxy-5-[4-(3-methylpyridin-4-yl)benzenesulfonyl]-4-oxo-1,4-dihydropyrimidin-1-yl}-2,3-dihydro-1H-indene-5-carbonitrile]
0.01 to 10 nM	CCCCc1nc(=O)c(S(=O)(=O)c2ccc(-c3ccc(C(=O)NC)cc3F)cc2)c(O)n1[C@@H](CC)c1cccc(C#N)c1 [Example 545, 4′-({2-butyl-1-[(1S)-1-(3-cyanophenyl)propyl]-6-hydroxy-4-oxo-1,4-dihydropyrimidin-5-yl}sulfonyl)-2-fluoro-N-methyl-[1,1′-biphenyl]-4-carboxamide]
100 to 300 nM	CCCCc1nc(=O)c(S(=O)(=O)c2ccc(-c3ccc(F)nc3C)cc2)c(O)n1[C@@H]1CCc2ccc(C#N)cc21 [Example 546, (3R)-3-{2-butyl-5-[4-(6-fluoro-2-methylpyridin-3-yl)benzenesulfonyl]-6-hydroxy-4-oxo-1,4-dihydropyrimidin-1-yl}-2,3-dihydro-1H-indene-5-carbonitrile]
10 to 100 nM	CCCCc1nc(=O)c(S(=O)(=O)c2ccc(-c3cccnc3C)cc2)c(O)n1[C@@H]1CCc2ccc(C#N)cc21 [Example 547, (3R)-3-{2-butyl-6-hydroxy-5-[4-(2-methylpyridin-3-yl)benzenesulfonyl]-4-oxo-1,4-dihydropyrimidin-1-yl}-2,3-dihydro-1H-indene-5-carbonitrile]
10 to 100 nM	CCCCc1nc(=O)c(S(=O)(=O)c2ccc(-c3ccccc3C(=O)NC)cc2)c(O)n1[C@@H]1CCc2ccc(C#N)cc21 [Example 548, 4′-({2-butyl-1-[(1R)-6-cyano-2,3-dihydro-1H-inden-1-yl]-6-hydroxy-4-oxo-1,4-dihydropyrimidin-5-y1}sulfonyl)-N-methyl-[1,1′-biphenyl]-2-carboxamide]
0.01 to 10 nM	CCCCc1nc(=O)c(S(=O)(=O)c2ccc(-c3ccnc(F)c3C)cc2)c(O)n1[C@@H](CC)c1cccc(C#N)n1 [Example 549, 6-[(1S)-1-{2-butyl-5-[4-(2-fluoro-3-methylpyridin-4-yI)benzenesulfonyl]-6-hydroxy-4-oxo-1,4-dihydropyrimidin-1-yl}propyl]pyridine-2-carbonitrile]
0.01 to 10 nM	CCCCc1nc(=O)c(S(=O)(=O)c2ccc(-c3ccncc3C)cc2)c(O)n1[C@@H](CC)c1cccc(C#N)n1 [Example 550, 6-[(1S)-1-{2-butyl-6-hydroxy-5-[4-(3-methylpyridin-4-yl)benzenesulfonyl]-4-oxo-1,4-dihydropyrimidin-1-yl}propyl]pyridine-2-carbonitrile]
0.01 to 10 nM	CCCCc1nc(=O)c(S(=O)(=O)c2ccc(-c3ccccc3C(=O)NC)cc2)c(O)n1[C@@H](CC)c1cccc(C#N)n1 [Example 551, 4′-({2-butyl-1-[(1S)-1-(6-cyanopyridin-2-yl)propyl]-6-hydroxy-4-oxo-1,4-dihydropyrimidin-5-yl}sulfonyl)-N-methyl-[1,1′-biphenyl]-2-carboxamide]
0.01 to 10 nM	CCCCc1nc(=O)c(S(=O)(=O)c2ccc(-c3cccc(C(=O)NC)c3)cc2)c(O)n1[C@@H](CC)c1cccc(C#N)n1 [Example 552, 4′-({2-butyl-1-[(1S)-1-(6-cyanopyridin-2-yl)propyl]-6-hydroxy-4-oxo-1,4-dihydropyrimidin-5-yl}sulfonyl)-N-methyl-[1,1′-biphenyl]-3-carboxamide]
0.01 to 10 nM	CCCCc1nc(=O)c(S(=O)(=O)[C@H]2CC[C@H](O)CC2)c(O)n1-c1c(CC)cccc1CC [Example 553, 2-butyl-1-(2,6-diethylphenyl)-6-hydroxy-5-{[(1r,4r)-4-hydroxycyclohexyl]sulfonyl}-1,4-dihydropyrimidin-4-one]
0.01 to 10 nM	CCCCc1nc(=O)c(S(=O)(=O)[C@H]2CC[C@@H](O)CC2)c(O)n1-c1c(CC)cccc1CC [Example 554, 2-butyl-1-(2,6-diethylphenyl)-6-hydroxy-5-{[(1s,4s)-4-hydroxycyclohexyl]sulfonyl}-1,4-dihydropyrimidin-4-one]
0.01 to 10 nM	CCCCc1nc(=O)c(S(=O)(=O)[C@H]2CC[C@@H](O)CC2)c(O)n1-c1c(OC)cccc1OC [Example 555, 2-butyl-1-(2,6-dimethoxyphenyl)-6-hydroxy-5-{[(1s,4s)-4-hydroxycyclohexyl]sulfonyl}-1,4-dihydropyrimidin-4-one]
0.01 to 10 nM	CCCCc1nc(=O)c(S(=O)(=O)[C@H]2CC[C@H](O)CC2)c(O)n1-c1c(OC)cccc1OC [Example 556, 2-butyl-1-(2,6-dimethoxyphenyl)-6-hydroxy-5-{[(1r,4r)-4-hydroxycyclohexyl]sulfonyl}-1,4-dihydropyrimidin-4-one]

From patent US10508104B2, “6-hydroxy-5-(phenyl/heteroarylsulfonyl)pyrimidin-4(1H)-one as APJ agonists” (Bristol-Myers Squibb Company, priority 2016, dated 2019)
